The source of these data is patent US20060166934A1, “Composition comprising phytosphingosine derivatives for apoptosis induction” (Tae-Yoon Kim, priority 2002, published 2006).

The term viability denotes a read-out of living cells in per cent, often relative to untreated cells.

A short description of data set [1]: MTT assay, cytotoxicity in human keratinocyte cell line. In kind it is cell-based. The following applies: human, Cell viability. In outline: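 HaCaT keratinocytes, 1-2×10^4 cells per well in serum-free medium, treated 24 h with phytosphingosine derivatives (1-100 μM, DMSO vehicle). Viability by MTT (2 mg/ml, 4 h), formazan dissolved in DMSO, O.D. read at 540 nm.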
(In general: Tetrazolium dyes change colour on reduction, which living cells bring about.)

The test system of data set [2] is A431 cells, human skin cancer cell line. Description: MTT assay, cytotoxicity in human skin cancer cell line. The note with it: for Cell viability: A431, con = 100, in %. It is filed as cell-based. On the procedure:
Firstly, the cytotoxicity is measured by the MTT assay. Phytosphingosine (PS), phytosphingosine-HCl (PS-HCl), C6-phytosphingosine (C6-PS), CLA-phytosphingosine (CLA-PS), tetraacetyl phytosphingosine (TAPS), and N-acetyl phytosphingosine (NAPS) are dissolved into DMSO to have the final concentration of 1-100 μM.
In order to study the effects of the compositions of the present invention on the cytotoxicity in the human keratinocyte cell line HaCaT cells, the cell viability is analyzed by the MTT (3-[4,5-dimethylthiazol-2-yl]-2,5-diphenyltetrazolium bromide) assay. HaCaT cells are supplied by Professor N. Fuseng of German Cancer Research in Germany. HaCaT cells are seeded in a density of 1×10^6 cells in a […] and cultured in DMEM (Dulbecco's Modified Eagle Medium) containing 10% fetal bovine serum (FBS, GIBCO), 100 units/ml penicillin, and 100 μg/ml streptomycin for 48 hours. They are treated with trypsin and 1-2×10^4 cells per well are seeded again in a 96-well plate by using a serum-free culture medium, about 3 hours after which they are cultured by treatment with phytosphingosine derivatives. After they are cultured for 24 hours, the MTT reagent is added at a concentration of 2 mg/ml, cultured for 4 hours, suspended in DMSO after removing the culture medium completely in order to measure O.D. at 540 nm. C2-ceramide is used for comparison.
In order to study the effects of the compositions of the present invention on the cytotoxicity in A431 cells, human skin cancer cell line, the MTT assay is used. The method of cell culture and MTT assay are the same as those in the above method. C2-ceramide is used for comparison.

For data set [3], the system named is HaCaT cells. Description: TUNEL assay, induction of apoptosis. It is filed as cell-based, human. The following applies: for cell death (TUNEL): 10 μM and 30 μM, 24 hours, FIG. 6; for time after treating at which apoptosis is induced: 30 μM, FIG. 7. The method, then:
Induction of apoptosis of HaCaT cells by the compositions of the present invention is observed in the TUNEL-TdT-mediated dUTP nick end labeling-assay by using in situ cell death detection kit, POD (Enzo, 1684817, Boeringer Mannhein).
In the TC chamber (Lab-TEK chamber Slide w/cover Permanox Slide sterile 1 well, 177410), 1×10^6 HaCaT cells are seeded and cultured on the DMEM medium for longer than 18 hours and treated with phytosphingosine derivatives. The cells are fixed 24 hours after treating with drugs, and the endogenous peroxidase is blocked with a blocking solution (3% H2O2 in MeOH), and permeation of cells is increased by using a permeabilization solution (0.1% Triton X-100 in 0.1% sodium citrate). Then apoptotic cells are labeled by using the mixture of tunnel reaction and are colored by using the DAB substrate (DAKO, K3465). Colored cells are observed by using a microscope.

In data set [4] the test system is peripheral blood mononuclear cells (PBMC). In words: MTT assay, cytotoxicity in peripheral blood mononuclear cells. It is filed as cell-based, human. The note with it: FIG. 3. On the procedure: The effects of the composition of the present invention on the cytotoxicity in immune cells (T cells, B cells, macrophages, monocytes, etc.) obtained from human blood were examined. The blood was obtained from healthy volunteers and PBMC from the blood by mechanical aggregation method. And mononuclear cells containing T cells, B cells, macrophages and monocytes were isolated from single cells by density gradient centrifugation method using Ficoll Hypaque. Briefly, single cells were treated with PBS and overlayed on Ficoll Hypaque and centrifuged at 1500 rpm for 30 min. After centrifugation, the cells around the boundary of the Ficoll-Hapaque were collected and washed three times with PBS. […] And RPMI with 10% of serum was used as a medium. The isolated cells were cultured for 24 hours in the presence of 1, 10, 50 and 100 μM of NAPS, TAPS, and PS to examine the effect of cytotoxicity, i.e. the degree of proliferation of the cells. C2-ceramide was used as control.

The subject of data set [5] is HaCaT cells. In words: Cell cycle by flow cytometric analysis. It is filed as cell-based, human. The following applies: FIG. 8. The method, then:
The effects of the compositions of the present invention on the cell cycle are reviewed. In the flow cytometric analysis, the cells are treated with trypsin according to each time interval, collected and washed with PBS. They are fixed by using 80% ethanol, and propidium iodide and RNase are added to them. Thereafter, the cell cycle is analyzed by using a flow cytometer.

A further data set relates to apoptosis-related genes. Description: Apoptosis array kit, gene expression. The note with it: 30 μM, 24 hours, FIG. 10. In kind it is cell-based. On the procedure: Firstly, in order to look into the genes involved in apoptosis induced by the compositions of the present invention, TAPS is treated at the dose of 30 μM for 24 hours, from which mRNA is isolated. Then it is observed by using an apoptosis array kit.
The labeled cDNA is synthesized by using apoptosis-specific primers offered by Human Apoptosis Expression Assay (R&D System, Minneapolis, Minn.), which is used for a probe in incubation with 2 μg of the total RNA at 65° C. overnight. It is then washed with Washing Solution I (0.5×SSPE, 1% (w/v) SDA) three times at a room temperature and with Washing Solution II ([…]) for 1 hour at 65° C. The washed membranes are exposed to X-ray films at […], and developed.

A further data set concerns p53. In words: Immunoblot analysis of p53. The note with it: 30 μM, FIG. 12. In kind it is cell-based, human. The method, then: In the confirmation of apoptosis-related proteins, the immunoblot analysis is performed in order to look into the effects of the compositions of the present invention on the expression of caspase-3, p53, and Chk1 proteins related to the induction of apoptosis. HaCaT cells are cultured on a 100-mm dish and collected at the indicative time. The proteins are extracted by adding 500 μl of RIPA lysis buffer (1% Nonidet P-40, 1% sodium deoxycholate, 0.1% SDS, […], 0.01 M sodium phosphate, pH 7.2, 2 mM EDTA, 50 mM sodium fluoride and 0.2 mM sodium vanadate), and the concentration is measured by using the Bradford method. 1 Extracted proteins is electrophoresed on 12% polyacrylamide gel, and they are transferred to the nitrocellulose membrane. The membrane blocked with 5% non-fat milk is reacted with the primary antibodies (caspase-3, p53, and Chk1), washed, and reacted with the secondary HRP-conjugated antibody. The intensity of proteins is analyzed by using the ECL kit.
A general note: In western blotting, separated proteins are transferred to a membrane and probed.

As to `CCCCCCCCCCCCCC[C@@H](O)[C@@H](O)[C@H](CO)NC(C)=O` [NAPS, N-acetyl phytosphingosine], in data set [1], the viability at 24 h, 1 µM was 103 ± 6.9%; the viability at 24 h, 3 µM was found to be 99 ± 3.5%; the viability at 24 h, 10 µM was found to be 86 ± 2.1%; the viability at 24 h, 30 µM came to 17 ± 0.8%. For the same compound, the cytotoxicity in data set [2] (human, 24 h, 50 μM) is 95-98%. Moreover, in the data set with HaCaT cells [3], the “cell death (TUNEL)” value is listed as “most significant effect of cell death” and the “time after treating at which apoptosis is induced” value was determined as 4 h.

Turning to tetraacetyl phytosphingosine [TAPS], the Cell viability in data set [2] (3 μM) was 113 ± 11.2. Also, the Cell viability in data set [2] (10 μM) was determined as 83 ± 13.9. Further, the Cell viability in data set [2] (30 μM) worked out at 12 ± 1.7. The same compound registered a Cell viability in data set [2] (50 μM) of 5 ± 1.2. Moreover, the “concentration that shows the strong cytotoxicity” value in data set [4] (human PBMC) was found to be 50 µM. Besides, the “cytotoxicity to PBMC” value in data set [4] (up to 100 μM, 24 hours) is “strong cytotoxicity”. In the data set on HaCaT cells [3], the “cell death (TUNEL)” value is “most significant effect of cell death” and the “time after treating at which apoptosis is induced” value came out at 4 h. Also, in the data set on HaCaT cells [5] (thereafter up to 24 hours), the G2/M phase entry is “reduced continuously” and the “sub G1 phase (apoptotic cells)” value is listed as “increased relatively”. In the data set with HaCaT cells [5] (up to 12 hours after treating), the G2/M phase result is reported as “increased relatively” and the S phase entry is reported as “reduced”. In addition, in the data set on apoptosis-related genes, the “expression of Bcl-10” value is “increased”, the “expression of COX-2 gene” value is recorded as “increased”, the “expression of IL-1β” value is recorded as “increased” and the “expression of Mcl-1” value is “increased”. Moreover, in the data set on apoptosis-related genes, the “expression of PIN gene” value was “increased”, the “expression of p21” value was “increased”, the “expression of p53 gene” value is given as “decreased” and the expression of survivin result was “reduced”. Besides, the p53 protein result in the data set on p53 (at 8-hour) is on record as “not changed greatly”. The p53 protein entry in the data set with p53 (at 24 hour) was “rapid reduction”.
